Patent publication US10307404B1, “Ocular formulations for drug-delivery to the posterior segment of the eye” (priority 2013, dated 2019)
Values joined by “and” are separate entries in the source; they are usually repeats but may differ in a detail not shown here. Equal entries are not always repeated. Where two headings read alike, the source gives them in different places.

Assays:
[1] = system: HUVECs; assay: Inhibition of VEGF-stimulated mitogenesis in HUVECs; format: cell-based; conditions: Homo sapiens, HUVEC
[2] = molecular target: KDR (VEGFR-2) (Homo sapiens, UniProt P35968); assay: In vitro inhibition of tyrosine kinases; format: biochemical; conditions: 300 nM (170.67 ng/mL)
[3] = Ocular toxicology study, twice daily 0.3% Tris-based suspension, 30 days; format: in vivo, Dutch-Belted rabbits
[4] = PK of topical ocular sodium phosphate-based Gel Drop, concentrations 1 hour after last dose; format: in vivo, Dutch-belted rabbits; conditions: Dutch-belted, rabbit
Text: The Gel Drop of Compound-I was applied to eyes of Dutch-belted rabbits.

Chain of KDR (VEGFR-2) (P35968 20-1356): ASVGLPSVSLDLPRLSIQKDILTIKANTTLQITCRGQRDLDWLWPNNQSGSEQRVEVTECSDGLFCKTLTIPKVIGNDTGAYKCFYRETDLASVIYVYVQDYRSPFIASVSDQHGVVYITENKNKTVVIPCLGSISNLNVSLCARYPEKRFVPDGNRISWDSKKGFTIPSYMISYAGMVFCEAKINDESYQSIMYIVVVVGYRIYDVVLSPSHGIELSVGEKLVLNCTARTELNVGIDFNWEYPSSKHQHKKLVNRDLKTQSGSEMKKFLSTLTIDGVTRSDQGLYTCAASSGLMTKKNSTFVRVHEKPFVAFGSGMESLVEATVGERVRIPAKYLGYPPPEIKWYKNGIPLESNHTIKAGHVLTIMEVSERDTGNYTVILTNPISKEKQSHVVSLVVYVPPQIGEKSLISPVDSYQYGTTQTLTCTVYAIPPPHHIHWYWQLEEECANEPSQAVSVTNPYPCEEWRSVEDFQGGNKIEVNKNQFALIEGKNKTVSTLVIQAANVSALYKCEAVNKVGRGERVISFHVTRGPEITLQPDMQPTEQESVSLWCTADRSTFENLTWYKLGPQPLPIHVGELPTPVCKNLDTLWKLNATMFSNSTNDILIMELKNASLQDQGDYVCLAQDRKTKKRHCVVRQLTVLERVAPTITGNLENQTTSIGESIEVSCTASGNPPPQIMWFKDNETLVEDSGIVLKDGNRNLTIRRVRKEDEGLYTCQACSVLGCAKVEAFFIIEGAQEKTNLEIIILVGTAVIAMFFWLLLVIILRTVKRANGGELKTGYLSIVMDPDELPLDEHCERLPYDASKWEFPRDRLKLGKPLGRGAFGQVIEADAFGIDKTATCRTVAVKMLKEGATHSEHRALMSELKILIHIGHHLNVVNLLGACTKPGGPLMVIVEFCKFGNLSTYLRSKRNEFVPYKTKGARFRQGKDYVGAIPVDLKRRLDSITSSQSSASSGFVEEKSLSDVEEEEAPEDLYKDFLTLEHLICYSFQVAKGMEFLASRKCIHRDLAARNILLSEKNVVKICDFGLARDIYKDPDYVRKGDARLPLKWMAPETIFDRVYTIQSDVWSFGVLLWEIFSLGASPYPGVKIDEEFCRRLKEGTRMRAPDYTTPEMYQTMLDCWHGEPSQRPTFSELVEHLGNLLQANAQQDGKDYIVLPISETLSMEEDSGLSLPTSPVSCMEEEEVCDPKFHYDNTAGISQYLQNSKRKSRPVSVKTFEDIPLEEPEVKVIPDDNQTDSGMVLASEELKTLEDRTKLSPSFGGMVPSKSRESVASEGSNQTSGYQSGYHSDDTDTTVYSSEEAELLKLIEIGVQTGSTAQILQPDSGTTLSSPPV

## Cl.NC(=O)c1c(OCc2c(F)cc(Br)cc2F)nsc1NC(=O)NCCCCN1CCCC1 [Compound-I, 3-[(4-bromo-2,6-difluorophenyl)methoxy]-5-[[[[4-(1-pyrrolidinyl)butyl]amino]carbonyl]amino]-4-isothiazolecarboxamide hydrochloride]
[1]
  IC50: 14.1 nM and 0.008 µg/mL
[2]
  VEGFR-2 kinase function: completely inhibited
[3]; 0.3% w/v Tris-based suspension twice daily for 30 days
  eyes at microscopic evaluation: considered normal
[3]; rabbit, in vivo
  tolerability, clinical ophthalmic examinations: well tolerated
[4]; AH (aqueous humor), 2 mg/ml, pH 6, 2 mg/ml pH 6 BAK 0.005% Gly 2% Osmo 232, 3x/day 5 days, read-out: Mean [AH]
  concentration at 1 h: 30 nM
[4]; AH (aqueous humor), 2 mg/ml, pH 6, 2 mg/ml pH 6.0 Phos 0.02% BAK 0.005% Gly 2% PS80 1% Tylox 0.2%, 3x/day 5 days, read-out: Mean [AH]
  concentration at 1 h: 13.8 nM
[4]; AH (aqueous humor), 2 mg/ml, pH 6, 2 mg/ml pH 6 Phos 0.05% BAK 0.005% Gly 2% PS80 1% Osmo 261, 3x/day 5 days, read-out: Mean [AH]
  concentration at 1 h: 25.5 nM
[4]; AH (aqueous humor), 2 mg/ml, pH 6, 2 mg/ml pH 6.0 Phos 0.05% BAK 0.005% Gly 2%, 3x/day 5 days, read-out: Mean [AH]
  concentration at 1 h: 32.2 nM
[4]; AH (aqueous humor), 2 mg/ml, pH 6, 2 mg/ml pH 6.0 Phos 0.2% BAK 0.005% Gly 2%, 3x/day 5 days, read-out: Mean [AH]
  concentration at 1 h: 14.8 nM
[4]; AH (aqueous humor), 4 mg/ml, pH 6, 4 mg/ml pH 6.0 Phos 0.2% BAK 0.005% Gly 2%, 3x/day 5 days, read-out: Mean [AH]
  concentration at 1 h: 25 nM
[4]; AH (aqueous humor), 4 mg/ml, pH 6, 4 mg/ml pH 6.0 Phos 2% BAK 0.005% Gly 2% PS80 1% Tylox 0.2%, 3x/day 5 days, read-out: Mean [AH]
  concentration at 1 h: 21.1 nM
[4]; AH (aqueous humor), 6 mg/ml, pH 5.9, 6 mg/ml pH 5.9 Phos 0.05% BAK 0.005% Gly 2% PS80 1% Tylox 0.1% Polox 0.2% Osmo 270, 3x/day 4 days, read-out: Mean [AH]
  concentration at 1 h: 222 nM
[4]; AH (aqueous humor), 6 mg/ml, pH 5.9, 6 mg/ml pH 5.9 Phos 0.1% BAK 0.005% Gly 2% Polox 0.2% Osmo 257, 3x/day 4 days, read-out: Mean [AH]
  concentration at 1 h: 55.4 nM
[4]; aqueous humor (AH), 1 mg/ml, pH 6, 1 mg/ml pH 6 BAK 0.005% Gly 2% Osmo 234, 3x/day 5 days, read-out: Mean [AH]
  concentration at 1 h: 17.1 nM
[4]; aqueous humor (AH), 1 mg/ml, pH 6, 1 mg/ml pH 6.0 Phos 0.05% BAK 0.005% Gly 2% PS80 0.01% Tylox 0.2%, 3x/day 5 days, read-out: Mean [AH]
  concentration at 1 h: 9.09 nM
[4]; aqueous humor (AH), 1 mg/ml, pH 6, 1 mg/ml pH 6 Phos 0.05% BAK 0.005% Gly 2%, 3x/day 5 days, read-out: Mean [AH]
  concentration at 1 h: 16.4 nM
[4]; aqueous humor (AH), 1 mg/ml, pH 6, 1 mg/ml pH 6.0 Phos 0.2% BAK 0.005% Gly 2% PS80 1% Tylox 0.2%, 3x/day 5 days, read-out: Mean [AH]
  concentration at 1 h: 6.27 nM
[4]; aqueous humor (AH), 1 mg/ml, pH 6, 1 mg/ml pH 6.0 Phos 0.2% BAK 0.005% Gly 2%, 3x/day 5 days, read-out: Mean [AH]
  concentration at 1 h: 20.6 nM
[4]; aqueous humor (AH), 2 mg/ml, pH 6, 2 mg/ml pH 6 Phos 0.05% BAK 0.005% Gly 2% Osmo 244, 3x/day 5 days, read-out: Mean [AH]
  concentration at 1 h: 27.8 nM
[4]; aqueous humor (AH), 2 mg/ml, pH 6, 2 mg/ml pH 6.0 Phos 0.05% BAK 0.005% Gly 2% PS80 1% Tylox 0.2%, 3x/day 5 days, read-out: Mean [AH]
  concentration at 1 h: 18.2 nM
[4]; aqueous humor (AH), 2 mg/ml, pH 6, 2 mg/ml pH 6.0 Phos 0.1% BAK 0.005% Gly 2%, 3x/day 5 days, read-out: Mean [AH]
  concentration at 1 h: 18.9 nM
[4]; aqueous humor (AH), 2 mg/ml, pH 6, 2 mg/ml pH 6 Phos 0.2% BAK 0.005% Gly 2% Osmo 257, 3x/day 5 days, read-out: Mean [AH]
  concentration at 1 h: 29.5 nM
[4]; aqueous humor (AH), 2 mg/ml, pH 6, 2 mg/ml pH 6 Phos 0.2% BAK 0.005% Gly 2% PS80 1% Osmo 281, 3x/day 5 days, read-out: Mean [AH]
  concentration at 1 h: 19.7 nM
[4]; aqueous humor (AH), 2 mg/ml, pH 6.1, 2 mg/ml pH 6.1 Phos […] Osmo 34, 3x/day 4 days, read-out: Mean [AH]
  concentration at 1 h: 13.7 nM
[4]; choroid, 1 mg/ml, pH 6, 1 mg/ml pH 6 BAK 0.005% Gly 2% Osmo 234, 3x/day 5 days, read-out: MEAN [choroid]
  concentration at 1 h: 359 nM
[4]; choroid, 1 mg/ml, pH 6, 1 mg/ml pH 6 BAK 0.005% Gly 2% PS80 1% Tylox 0.1% Polox 0.2% Osmo 237, 3x/day 5 days, read-out: MEAN [choroid]
  concentration at 1 h: 339 nM
[4]; choroid, 1 mg/ml, pH 6, 1 mg/ml pH 6.0 Phos 0.05% BAK 0.005% Gly 2% PS80 0.01% Tylox 0.2%, 3x/day 5 days, read-out: MEAN [choroid]
  concentration at 1 h: 295 nM
[4]; choroid, 1 mg/ml, pH 6, 1 mg/ml pH 6 Phos 0.05% BAK 0.005% Gly 2%, 3x/day 5 days, read-out: MEAN [choroid]
  concentration at 1 h: 398 nM
[4]; choroid, 1 mg/ml, pH 6, 1 mg/ml pH 6.0 Phos 0.2% BAK 0.005% Gly 2% PS80 1% Tylox 0.2%, 3x/day 5 days, read-out: MEAN [choroid]
  concentration at 1 h: 423 nM
[4]; choroid, 1 mg/ml, pH 6, 1 mg/ml pH 6.0 Phos 0.2% BAK 0.005% Gly 2%, 3x/day 5 days, read-out: MEAN [choroid]
  concentration at 1 h: 519 nM
[4]; choroid, 1 mg/ml, pH 6.1, 1 mg/ml pH 6.1 BAK 0.005% Gly 2% Osmo 230, 3x/day 5 days, read-out: MEAN [choroid]
  concentration at 1 h: 537 nM
[4]; choroid, 2 mg/ml, pH 5.9, 2 mg/ml pH 5.9 Phos 0.05% BAK 0.005% Gly 2% Osmo 233, 3x/day 5 days, read-out: MEAN [choroid]
  concentration at 1 h: 362 nM
[4]; choroid, 2 mg/ml, pH 6, 2 mg/ml pH 6 BAK 0.005% Gly 2% Osmo 232, 3x/day 5 days, read-out: MEAN [choroid]
  concentration at 1 h: 589 nM
[4]; choroid, 2 mg/ml, pH 6, 2 mg/ml pH 6.0 Phos 0.02% BAK 0.005% Gly 2% PS80 1% Tylox 0.2%, 3x/day 5 days, read-out: MEAN [choroid]
  concentration at 1 h: 599 nM
[4]; choroid, 2 mg/ml, pH 6, 2 mg/ml pH 6 Phos 0.05% BAK 0.005% Gly 2% Osmo 244, 3x/day 5 days, read-out: MEAN [choroid]
  concentration at 1 h: 422 nM
[4]; choroid, 2 mg/ml, pH 6, 2 mg/ml pH 6 Phos 0.05% BAK 0.005% Gly 2% PS80 1% Osmo 261, 3x/day 5 days, read-out: MEAN [choroid]
  concentration at 1 h: 559 nM
[4]; choroid, 2 mg/ml, pH 6, 2 mg/ml pH 6.0 Phos 0.05% BAK 0.005% Gly 2%, 3x/day 5 days, read-out: MEAN [choroid]
  concentration at 1 h: 528 nM
[4]; choroid, 2 mg/ml, pH 6, 2 mg/ml pH 6.0 Phos 0.1% BAK 0.005% Gly 2%, 3x/day 5 days, read-out: MEAN [choroid]
  concentration at 1 h: 525 nM
[4]; choroid, 2 mg/ml, pH 6, 2 mg/ml pH 6 Phos 0.2% BAK 0.005% Gly 2% PS80 1% Osmo 281, 3x/day 5 days, read-out: MEAN [choroid]
  concentration at 1 h: 357 nM
[4]; choroid, 2 mg/ml, pH 6, 2 mg/ml pH 6.0 Phos 0.2% BAK 0.005% Gly 2%, 3x/day 5 days, read-out: MEAN [choroid]
  concentration at 1 h: 532 nM
[4]; choroid, 2 mg/ml, pH 6.1, 2 mg/ml pH 6.1 BAK 0.005% Gly 2% Osmo 229, 3x/day 5 days, read-out: MEAN [choroid]
  concentration at 1 h: 462 nM
[4]; choroid, 2 mg/ml, pH 6.1, 2 mg/ml pH 6.1 Phos 0.05% BAK 0.005% Gly 2% PS80 1% Tylox 0.1% Osmo 239, 3x/day 5 days, read-out: MEAN [choroid]
  concentration at 1 h: 660 nM
[4]; choroid, 2 mg/ml, pH 6.1, 2 mg/ml pH 6.1 Phos […] Osmo 22, 3x/day 5 days, read-out: MEAN [choroid]
  concentration at 1 h: 356 nM
[4]; choroid, 2 mg/ml, pH 6.1, 2 mg/ml pH 6.1 Phos […] Osmo 34, 3x/day 4 days, read-out: MEAN [choroid]
  concentration at 1 h: 466 nM
[4]; choroid, 4 mg/ml, pH 6, 4 mg/ml pH 6.0 Phos 0.2% BAK 0.005% Gly 2%, 3x/day 5 days, read-out: MEAN [choroid]
  concentration at 1 h: 596 nM
[4]; choroid, 5 mg/ml, pH 6, 5 mg/ml pH 6 Phos 0.2% BAK 0.005% Gly 2% Osmo 273, 3x/day 5 days, read-out: MEAN [choroid]
  concentration at 1 h: 1160 nM
